# Source: the kinase profiling compilation of Christmann-Franck et al. (2016)
# Key:
# Test in all cases: radiometric filter-binding kinase assay
# MARK4 (human) = MARK4 (human) (UniProt Q96L34)
# CDK2 CCNA2 (human) = CDK2 CCNA2 (human) (UniProt P20248+P24941)
# MKNK1 (human) = MKNK1 (human) (UniProt Q9BUB5)
# FGFR1 (human) = FGFR1 (human) (UniProt P11362); conditions: compound 10.0 µM
# MINK1 (human) = MINK1 (human) (UniProt Q8N4C8); conditions: compound 10.0 µM
# ERBB4 (human) = ERBB4 (human) (UniProt Q15303)
# MAPK13 (human) = MAPK13 (human) (UniProt O15264)
# MELK (human) = MELK (human) (UniProt Q14680)
# MAPK1 (human) = MAPK1 (human) (UniProt P28482)
# INSRR (human) = INSRR (human) (UniProt P14616)
# [1] = target: STK11 CAB39 STRADA (human) (UniProt Q9Y376+Q7RTN6+Q15831)
# PHKG1 (human) = PHKG1 (human) (UniProt Q16816); conditions: compound 10.0 µM
# ROCK2 (rat) = conditions: accession and sequence are those of the human protein
# PRKAA1 or PRKAA2 (rat) = conditions: accession and sequence are those of the human protein
# RPS6KA1 KD1 KD2 (human) = RPS6KA1 KD1 KD2 (human) (UniProt Q15418)
# EPHB3 (human) = EPHB3 (human) (UniProt P54753)
# PRKCZ (human) = PRKCZ (human) (UniProt Q05513)
# CSNK2A1 (human) = CSNK2A1 (human) (UniProt P68400)
# SRC (human) = SRC (human) (UniProt P12931)
# MKNK2 (human) = MKNK2 (human) (UniProt Q9HBH9)
# PRKACA (human) = PRKACA (human) (UniProt P17612)
# IKBKB (human) = IKBKB (human) (UniProt O14920)
# CHEK2 (human) = CHEK2 (human) (UniProt O96017)
# MAP3K9 (human) = MAP3K9 (human) (UniProt P80192)
# TTK (human) = TTK (human) (UniProt P33981)
# CSK (human) = CSK (human) (UniProt P41240)
# GSK3B (human) = GSK3B (human) (UniProt P49841)
# MYLK (human) = MYLK (human) (UniProt Q15746)
# EEF2K (human) = EEF2K (human) (UniProt O00418)
# MAP2K2 (human) = MAP2K2 (human) (UniProt P36507)
# NTRK1 (human) = NTRK1 (human) (UniProt P04629)
# LCK (mouse) = conditions: accession and sequence are those of the human protein
# MAPKAPK3 (human) = MAPKAPK3 (human) (UniProt Q16644)
# AURKB (human) = AURKB (human) (UniProt Q96GD4)
# DAPK1 (human) = DAPK1 (human) (UniProt P53355)
# Sequence of MYLK (human) (Q15746 whole entry, looked up): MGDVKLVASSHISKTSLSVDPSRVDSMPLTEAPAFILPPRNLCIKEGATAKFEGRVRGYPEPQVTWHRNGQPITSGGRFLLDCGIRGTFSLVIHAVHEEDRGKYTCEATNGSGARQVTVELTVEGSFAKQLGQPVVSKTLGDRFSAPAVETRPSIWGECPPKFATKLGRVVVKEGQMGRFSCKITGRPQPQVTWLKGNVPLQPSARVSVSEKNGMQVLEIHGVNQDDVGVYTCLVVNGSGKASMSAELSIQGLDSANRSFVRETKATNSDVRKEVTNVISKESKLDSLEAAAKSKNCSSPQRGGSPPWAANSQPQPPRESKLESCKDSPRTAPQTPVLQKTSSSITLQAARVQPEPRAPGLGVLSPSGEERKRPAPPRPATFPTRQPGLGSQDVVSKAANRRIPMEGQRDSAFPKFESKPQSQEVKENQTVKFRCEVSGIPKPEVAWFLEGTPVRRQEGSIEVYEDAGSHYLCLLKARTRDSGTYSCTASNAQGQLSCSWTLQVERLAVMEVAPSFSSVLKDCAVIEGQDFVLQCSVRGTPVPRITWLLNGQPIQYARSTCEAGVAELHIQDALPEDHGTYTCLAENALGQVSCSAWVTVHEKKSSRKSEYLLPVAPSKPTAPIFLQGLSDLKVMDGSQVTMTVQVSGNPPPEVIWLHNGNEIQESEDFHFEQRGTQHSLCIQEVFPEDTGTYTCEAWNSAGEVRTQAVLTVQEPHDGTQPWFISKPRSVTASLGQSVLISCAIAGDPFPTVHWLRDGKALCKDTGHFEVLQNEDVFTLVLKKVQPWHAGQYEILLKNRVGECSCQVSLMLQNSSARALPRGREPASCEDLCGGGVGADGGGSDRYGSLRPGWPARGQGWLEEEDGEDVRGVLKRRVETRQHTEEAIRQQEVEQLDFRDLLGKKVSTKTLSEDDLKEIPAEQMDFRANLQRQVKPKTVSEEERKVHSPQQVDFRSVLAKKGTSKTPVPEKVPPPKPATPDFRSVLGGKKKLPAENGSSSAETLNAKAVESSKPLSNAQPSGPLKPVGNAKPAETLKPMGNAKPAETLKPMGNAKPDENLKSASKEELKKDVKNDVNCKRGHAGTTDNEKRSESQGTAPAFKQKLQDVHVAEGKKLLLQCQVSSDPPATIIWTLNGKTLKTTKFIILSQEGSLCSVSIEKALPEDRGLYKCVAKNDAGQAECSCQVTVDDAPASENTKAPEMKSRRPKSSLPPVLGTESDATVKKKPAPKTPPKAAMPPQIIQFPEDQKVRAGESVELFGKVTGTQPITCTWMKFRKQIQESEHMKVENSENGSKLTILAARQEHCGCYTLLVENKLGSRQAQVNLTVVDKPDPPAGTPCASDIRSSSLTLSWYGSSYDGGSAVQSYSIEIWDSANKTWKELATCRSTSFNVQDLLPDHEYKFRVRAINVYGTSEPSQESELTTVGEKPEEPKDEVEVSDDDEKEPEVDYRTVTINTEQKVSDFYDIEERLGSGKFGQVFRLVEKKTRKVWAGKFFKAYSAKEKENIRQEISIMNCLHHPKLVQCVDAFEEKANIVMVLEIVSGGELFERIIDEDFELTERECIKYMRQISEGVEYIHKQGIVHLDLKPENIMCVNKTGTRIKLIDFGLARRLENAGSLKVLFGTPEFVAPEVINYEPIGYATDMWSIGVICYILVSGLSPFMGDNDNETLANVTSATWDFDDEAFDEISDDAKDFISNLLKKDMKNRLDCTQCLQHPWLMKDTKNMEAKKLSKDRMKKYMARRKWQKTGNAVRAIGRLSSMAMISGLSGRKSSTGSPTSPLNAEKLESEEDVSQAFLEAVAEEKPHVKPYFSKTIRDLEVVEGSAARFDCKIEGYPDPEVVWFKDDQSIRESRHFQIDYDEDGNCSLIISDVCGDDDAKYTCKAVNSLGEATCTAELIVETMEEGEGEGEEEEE
# Sequence of STK11 CAB39 STRADA (human) (Q15831 whole entry, looked up): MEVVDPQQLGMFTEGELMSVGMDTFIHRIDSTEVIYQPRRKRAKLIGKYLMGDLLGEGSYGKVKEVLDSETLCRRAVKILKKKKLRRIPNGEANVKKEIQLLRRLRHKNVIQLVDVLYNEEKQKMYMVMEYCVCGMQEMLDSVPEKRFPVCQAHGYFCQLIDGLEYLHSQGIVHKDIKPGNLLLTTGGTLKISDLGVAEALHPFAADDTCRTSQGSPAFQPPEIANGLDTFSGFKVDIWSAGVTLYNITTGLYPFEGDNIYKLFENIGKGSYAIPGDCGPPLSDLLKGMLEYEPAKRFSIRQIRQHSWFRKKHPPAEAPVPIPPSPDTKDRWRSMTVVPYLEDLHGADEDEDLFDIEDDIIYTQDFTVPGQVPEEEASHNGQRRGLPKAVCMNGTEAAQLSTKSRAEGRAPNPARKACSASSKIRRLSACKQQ
# Sequence of STK11 CAB39 STRADA (human) (Q7RTN6 whole entry, looked up): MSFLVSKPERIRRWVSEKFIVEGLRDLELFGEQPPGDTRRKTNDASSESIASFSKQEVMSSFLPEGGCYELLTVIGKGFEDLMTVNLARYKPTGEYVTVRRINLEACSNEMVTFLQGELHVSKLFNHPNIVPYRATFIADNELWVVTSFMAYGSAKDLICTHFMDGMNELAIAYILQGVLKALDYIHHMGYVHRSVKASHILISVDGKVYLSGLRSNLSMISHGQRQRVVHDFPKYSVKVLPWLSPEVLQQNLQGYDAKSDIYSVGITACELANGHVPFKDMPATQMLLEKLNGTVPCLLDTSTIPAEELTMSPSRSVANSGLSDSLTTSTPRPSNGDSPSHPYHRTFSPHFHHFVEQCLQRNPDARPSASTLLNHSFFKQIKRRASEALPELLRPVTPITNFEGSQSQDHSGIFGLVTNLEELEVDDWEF
# Sequence of STK11 CAB39 STRADA (human) (Q9Y376 whole entry, looked up): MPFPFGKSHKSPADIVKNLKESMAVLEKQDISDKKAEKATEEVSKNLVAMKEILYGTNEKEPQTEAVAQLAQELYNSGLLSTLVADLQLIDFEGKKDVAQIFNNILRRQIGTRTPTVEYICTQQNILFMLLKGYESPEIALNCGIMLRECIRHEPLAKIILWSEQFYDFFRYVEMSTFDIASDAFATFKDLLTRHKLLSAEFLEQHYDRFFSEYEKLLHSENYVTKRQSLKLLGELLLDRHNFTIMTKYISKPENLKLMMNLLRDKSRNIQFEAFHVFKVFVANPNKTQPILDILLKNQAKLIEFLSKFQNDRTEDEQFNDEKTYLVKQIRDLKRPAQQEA
# Sequence of CSNK2A1 (human) (P68400 whole entry, looked up): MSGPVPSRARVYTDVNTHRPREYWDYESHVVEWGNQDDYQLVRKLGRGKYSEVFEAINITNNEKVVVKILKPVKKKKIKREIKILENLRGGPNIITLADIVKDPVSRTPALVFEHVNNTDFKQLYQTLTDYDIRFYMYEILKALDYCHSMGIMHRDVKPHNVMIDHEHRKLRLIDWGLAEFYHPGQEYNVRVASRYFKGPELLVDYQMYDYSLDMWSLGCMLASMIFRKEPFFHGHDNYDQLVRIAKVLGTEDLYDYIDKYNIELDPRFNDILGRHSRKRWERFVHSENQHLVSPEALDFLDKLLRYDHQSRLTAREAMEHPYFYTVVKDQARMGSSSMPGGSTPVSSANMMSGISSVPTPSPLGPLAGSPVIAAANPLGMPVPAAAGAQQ
# Sequence of CSK (human) (P41240 whole entry, looked up): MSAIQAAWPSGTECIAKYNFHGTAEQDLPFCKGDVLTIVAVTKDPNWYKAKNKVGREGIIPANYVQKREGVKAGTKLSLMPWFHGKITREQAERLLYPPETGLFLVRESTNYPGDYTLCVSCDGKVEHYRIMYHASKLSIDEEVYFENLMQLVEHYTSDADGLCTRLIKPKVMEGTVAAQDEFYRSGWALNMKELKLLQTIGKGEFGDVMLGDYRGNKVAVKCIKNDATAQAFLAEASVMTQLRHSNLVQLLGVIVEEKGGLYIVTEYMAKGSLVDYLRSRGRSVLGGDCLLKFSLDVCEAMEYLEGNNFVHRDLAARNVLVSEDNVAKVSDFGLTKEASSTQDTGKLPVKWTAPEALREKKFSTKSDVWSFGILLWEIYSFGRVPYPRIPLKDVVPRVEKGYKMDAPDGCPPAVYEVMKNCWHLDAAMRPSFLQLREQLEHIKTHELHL
# Sequence of MAP3K9 (human) (P80192 whole entry, looked up): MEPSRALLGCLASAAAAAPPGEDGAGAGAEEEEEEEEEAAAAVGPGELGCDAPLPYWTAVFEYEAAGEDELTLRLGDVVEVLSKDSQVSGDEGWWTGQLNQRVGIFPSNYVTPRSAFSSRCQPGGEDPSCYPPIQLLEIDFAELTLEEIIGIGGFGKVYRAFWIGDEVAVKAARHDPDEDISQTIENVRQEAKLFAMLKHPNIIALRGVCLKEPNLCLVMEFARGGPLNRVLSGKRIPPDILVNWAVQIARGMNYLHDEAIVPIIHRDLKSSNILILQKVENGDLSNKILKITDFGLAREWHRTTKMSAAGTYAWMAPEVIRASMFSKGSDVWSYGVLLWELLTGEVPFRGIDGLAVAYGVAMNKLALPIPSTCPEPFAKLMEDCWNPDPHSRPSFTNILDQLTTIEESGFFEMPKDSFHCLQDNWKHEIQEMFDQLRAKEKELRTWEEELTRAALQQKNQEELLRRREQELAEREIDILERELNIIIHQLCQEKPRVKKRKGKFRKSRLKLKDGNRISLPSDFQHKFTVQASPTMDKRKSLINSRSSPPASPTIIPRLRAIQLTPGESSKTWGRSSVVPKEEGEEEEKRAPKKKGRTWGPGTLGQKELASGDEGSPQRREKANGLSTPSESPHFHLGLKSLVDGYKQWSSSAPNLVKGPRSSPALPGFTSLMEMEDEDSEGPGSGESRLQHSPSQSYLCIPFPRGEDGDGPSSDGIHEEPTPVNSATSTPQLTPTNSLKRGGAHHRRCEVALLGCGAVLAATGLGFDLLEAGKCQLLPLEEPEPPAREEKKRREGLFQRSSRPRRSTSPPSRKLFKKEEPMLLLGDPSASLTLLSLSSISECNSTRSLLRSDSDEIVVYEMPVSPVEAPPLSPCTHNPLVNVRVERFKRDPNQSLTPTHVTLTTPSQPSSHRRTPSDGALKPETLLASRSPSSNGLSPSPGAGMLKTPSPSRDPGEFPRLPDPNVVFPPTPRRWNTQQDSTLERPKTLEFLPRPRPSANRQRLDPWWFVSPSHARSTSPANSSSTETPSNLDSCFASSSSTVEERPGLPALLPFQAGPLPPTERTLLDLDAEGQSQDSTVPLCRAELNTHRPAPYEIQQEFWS
compound,measurement,setting,value
O=S(=O)(c1ccc(F)c2nonc12)N1CCN(c2ncc(C(F)(F)F)cc2Cl)CC1,residual activity,MARK4 (human); compound 10.0 µM,85%
same,residual activity,CDK2 CCNA2 (human); compound 10.0 µM,88%
same,residual activity,MKNK1 (human); compound 10.0 µM,70%
same,residual activity,FGFR1 (human),106%
same,residual activity,MINK1 (human),89%
same,residual activity,ERBB4 (human); compound 10.0 µM,105%
same,residual activity,MAPK13 (human); compound 10.0 µM,85%
same,residual activity,MELK (human); compound 10.0 µM,107%
same,residual activity,MAPK1 (human); compound 10.0 µM,90%
same,residual activity,INSRR (human); compound 10.0 µM,102%
same,residual activity,[1]; compound 10.0 µM,97%
same,residual activity,PHKG1 (human),90%
same,residual activity,ROCK2 (rat); compound 10.0 µM,95%
same,residual activity,PRKAA1 or PRKAA2 (rat); compound 10.0 µM,92%
same,residual activity,RPS6KA1 KD1 KD2 (human); compound 10.0 µM,90%
same,residual activity,EPHB3 (human); compound 10.0 µM,86%
same,residual activity,PRKCZ (human); compound 10.0 µM,94%
same,residual activity,CSNK2A1 (human); compound 10.0 µM,79%
same,residual activity,SRC (human); compound 10.0 µM,111%
same,residual activity,MKNK2 (human); compound 10.0 µM,92%
same,residual activity,PRKACA (human); compound 10.0 µM,103%
same,residual activity,IKBKB (human); compound 10.0 µM,89%
same,residual activity,CHEK2 (human); compound 10.0 µM,93%
same,residual activity,MAP3K9 (human); compound 10.0 µM,108%
same,residual activity,TTK (human); compound 10.0 µM,80%
same,residual activity,CSK (human); compound 10.0 µM,90%
same,residual activity,GSK3B (human); compound 10.0 µM,85%
same,residual activity,MYLK (human); compound 10.0 µM,112%
same,residual activity,EEF2K (human); compound 10.0 µM,79%
same,residual activity,MAP2K2 (human); compound 10.0 µM,99%
same,residual activity,NTRK1 (human); compound 10.0 µM,103%
same,residual activity,LCK (mouse); compound 10.0 µM,93%
same,residual activity,MAPKAPK3 (human); compound 10.0 µM,90%
same,residual activity,AURKB (human); compound 10.0 µM,96%
COC(=O)/C=C/C(=O)OC,residual activity,MARK4 (human); compound 100.0 µM,92%
same,residual activity,MARK4 (human); compound 1000.0 µM,96%
same,residual activity,CDK2 CCNA2 (human); compound 10.0 µM,77%
same,residual activity,CDK2 CCNA2 (human); compound 100.0 µM,75%
same,residual activity,CDK2 CCNA2 (human); compound 1000.0 µM,87%
same,residual activity,MKNK1 (human); compound 10.0 µM,101%
same,residual activity,MKNK1 (human); compound 100.0 µM,103%
same,residual activity,MKNK1 (human); compound 1000.0 µM,105%
same,residual activity,FGFR1 (human),85%
same,residual activity,DAPK1 (human); compound 10.0 µM,99%
same,residual activity,DAPK1 (human); compound 100.0 µM,102%
same,residual activity,DAPK1 (human); compound 1000.0 µM,104%
same,residual activity,ERBB4 (human); compound 10.0 µM,110%
same,residual activity,ERBB4 (human); compound 1000.0 µM,108%
same,residual activity,MAPK13 (human); compound 10.0 µM,92%
same,residual activity,MAPK13 (human); compound 100.0 µM,102%
same,residual activity,MELK (human); compound 10.0 µM,93%
same,residual activity,MELK (human); compound 100.0 µM,103%
same,residual activity,MAPK1 (human); compound 10.0 µM,85%
same,residual activity,MAPK1 (human); compound 1000.0 µM,105%
same,residual activity,INSRR (human); compound 10.0 µM,103%
same,residual activity,INSRR (human); compound 100.0 µM,108%
same,residual activity,INSRR (human); compound 1000.0 µM,112%
same,residual activity,[1]; compound 10.0 µM,93%
same,residual activity,[1]; compound 100.0 µM,97%
same,residual activity,[1]; compound 1000.0 µM,100%
same,residual activity,ROCK2 (rat); compound 10.0 µM,81%
same,residual activity,ROCK2 (rat); compound 100.0 µM,89%
same,residual activity,ROCK2 (rat); compound 1000.0 µM,98%
same,residual activity,PRKAA1 or PRKAA2 (rat); compound 10.0 µM,106%
same,residual activity,PRKAA1 or PRKAA2 (rat); compound 100.0 µM,104%
same,residual activity,PRKAA1 or PRKAA2 (rat); compound 1000.0 µM,109%
same,residual activity,RPS6KA1 KD1 KD2 (human); compound 10.0 µM,91%
same,residual activity,RPS6KA1 KD1 KD2 (human); compound 100.0 µM,92%
same,residual activity,RPS6KA1 KD1 KD2 (human); compound 1000.0 µM,90%
same,residual activity,EPHB3 (human); compound 10.0 µM,97%
same,residual activity,EPHB3 (human); compound 100.0 µM,105%
same,residual activity,EPHB3 (human); compound 1000.0 µM,114%
same,residual activity,PRKCZ (human); compound 10.0 µM,89%
same,residual activity,PRKCZ (human); compound 100.0 µM,103%
same,residual activity,CSNK2A1 (human); compound 10.0 µM,98%
same,residual activity,CSNK2A1 (human); compound 100.0 µM,95%
same,residual activity,CSNK2A1 (human); compound 1000.0 µM,91%
same,residual activity,SRC (human); compound 100.0 µM,104%
same,residual activity,SRC (human); compound 1000.0 µM,103%
same,residual activity,MKNK2 (human); compound 10.0 µM,101%
same,residual activity,MKNK2 (human); compound 100.0 µM,107%
same,residual activity,MKNK2 (human); compound 1000.0 µM,110%
same,residual activity,PRKACA (human); compound 10.0 µM,92%
same,residual activity,PRKACA (human); compound 100.0 µM,96%
same,residual activity,PRKACA (human); compound 1000.0 µM,99%
same,residual activity,IKBKB (human); compound 10.0 µM,84%
same,residual activity,IKBKB (human); compound 100.0 µM,91%
same,residual activity,IKBKB (human); compound 1000.0 µM,85%
same,residual activity,CHEK2 (human); compound 10.0 µM,90%
same,residual activity,CHEK2 (human); compound 100.0 µM,98%
same,residual activity,CHEK2 (human); compound 1000.0 µM,100%
same,residual activity,MAP3K9 (human); compound 10.0 µM,87%
same,residual activity,MAP3K9 (human); compound 100.0 µM,112%
same,residual activity,MAP3K9 (human); compound 1000.0 µM,135%
same,residual activity,TTK (human); compound 10.0 µM,98%
same,residual activity,TTK (human); compound 100.0 µM,93%
same,residual activity,TTK (human); compound 1000.0 µM,93%
same,residual activity,CSK (human); compound 10.0 µM,87%
same,residual activity,CSK (human); compound 100.0 µM,82%
same,residual activity,CSK (human); compound 1000.0 µM,86%
same,residual activity,GSK3B (human); compound 10.0 µM,92%
same,residual activity,GSK3B (human); compound 1000.0 µM,108%
same,residual activity,MYLK (human); compound 100.0 µM,99%
same,residual activity,MYLK (human); compound 1000.0 µM,102%
same,residual activity,EEF2K (human); compound 100.0 µM,106%
same,residual activity,EEF2K (human); compound 1000.0 µM,111%
same,residual activity,MAP2K2 (human); compound 10.0 µM,105%
same,residual activity,MAP2K2 (human); compound 100.0 µM,101%
same,residual activity,NTRK1 (human); compound 10.0 µM,88%
same,residual activity,NTRK1 (human); compound 100.0 µM,96%
same,residual activity,NTRK1 (human); compound 1000.0 µM,83%
same,residual activity,LCK (mouse); compound 10.0 µM,74%
same,residual activity,LCK (mouse); compound 100.0 µM,72%
same,residual activity,LCK (mouse); compound 1000.0 µM,84%
same,residual activity,MAPKAPK3 (human); compound 10.0 µM,87%
same,residual activity,MAPKAPK3 (human); compound 100.0 µM,97%
same,residual activity,AURKB (human); compound 10.0 µM,90%
same,residual activity,AURKB (human); compound 100.0 µM,102%
same,residual activity,AURKB (human); compound 1000.0 µM,98%
